Laboratory results published in patent publication US20260356854A1, “Prodrugs of Varenicline and Compounds Containing Vulnerable Amines” (Pfizer Inc., priority 2022, published 2026).
Read-outs that look alike come from different tables or passages of the source. Each block holds one compound with its values, some of them ahead of it.

Key:
[1] = tested on: chronic cigarette smokers; conditions: Study 3, patient-directed 0.5 mg QD to 1 mg BID, cited from earlier work
[2] = tested on: chronic cigarette smokers; conditions: Study 2, cited from earlier work; for co-confirmed continuous abstinence during weeks 9 through 12: placebo 12%; for continuously abstinent from one week after TQD through the end of treatment: placebo 8%
[3] = tested on: chronic cigarette smokers; conditions: Study 5, cited from earlier work
[4] = tested on: chronic cigarette smokers; conditions: total dose of 1 mg per day or 2 mg per day; six weeks; initial evidence; cited from earlier work
[5] = tested on: chronic cigarette smokers; conditions: Study 4, cited from earlier work
[6] = Moisture uptake / hygroscopicity (solid-state characterization); type: physicochemical; conditions: 90% RH/25 °C; crystalline anhydrous form
Description: (§1) Compound 1 is a crystalline anhydrous solid form as represented by its PXRD pattern (FIG. 1). […] Compound 1 has a melting onset of ~227 °C and is non-hygroscopic, i.e., less than 0.2% moisture uptake at 90% RH/25 °C.

[7] = Nitrosamine formation under nitrosating conditions in solution (UPLC-MS); type: physicochemical; conditions: for 10 min. N—NO Level: area % by UV; for 2 h N—NO Level / 42 h N—NO Level: area % by UV (210 nm)
Description: A study was conducted to determine whether varenicline prodrug (Compound 1) forms nitrosamine under nitrosating conditions in solution as compared to varenicline. Regular UPLC-MS detection was utilized. Varenicline free base (0.1 mmol), varenicline tartrate salt (0.1 mmol), and Compound 1 (0.1 mmol) were added to separate vials. THF (2.2 ml) was added to each vial. NaNO2 (0.1 eq) and AcOH (0.1 eq) (added as a 0.1 wt % NaNO2 solution with equivalent molar of acetic acid was also added to each vial to provide a total volume of ~2.5 ml/vial.

[8] = Weight loss on heating (solid-state characterization); type: physicochemical; conditions: up to 150 °C; crystalline anhydrous form
Description: as §1

[9] = Study to assess the bioequivalence of Compound 1 and varenicline tartrate (oral plasma concentrations); type: in vivo, monkey (non-human primates); conditions: monkey, capsule, 0.04 mg eq/kg
Description: FIG. 3 is a graph of the mean monkey plasma concentrations of varenicline following an oral dose of 0.04 mg eq/kg of prodrug (Compound 1) and varenicline tartrate.
A prodrug of varenicline (Compound 1) prepared as described above in Example 1 was orally dosed in capsule form to non-human primates to assess bioequivalence to varenicline tartrate API (Chantix). FIG. 3 is a graph of the mean monkey plasma concentrations of varenicline following an oral dose of 0.04 mg eq/kg of prodrug (Compound 1) and 0.04 mg eq/kg of varenicline tartrate.

[10] = varenicline 1 mg BID compared to bupropion SR or placebo
[11] = nitrosating conditions: NaNO2 0.1 eq, AcOH 0.1 eq, THF, 10 min
[12] = nitrosating conditions: NaNO2 0.1 eq, AcOH 0.1 eq, THF

Structure (SMILES): Cl.c1cnc2cc3c(cc2n1)C1CNCC3C1 [varenicline, 5,8,14-triazatetracyclo[10.3.1.0^2,11.0^4,9]hexadeca-2(11),3,5,7,9-pentaene]
continuously abstinent from one week after TQD through the end of treatment ([1]; placebo 9%): 29%
co-confirmed continuous abstinence during weeks 9 through 12 ([1]; placebo 12%): 40%
co-confirmed continuous abstinence during weeks 9 through 12 ([2]; 1 mg per day (0.5 mg BID)): Forty five
continuously abstinent from one week after TQD through the end of treatment ([2]; 1 mg per day): 31%
co-confirmed continuous abstinence during weeks 9 through 12 ([2]; 2 mg per day (1 mg BID)): 51%
continuously abstinent from one week after TQD through the end of treatment ([2]; 2 mg per day): 31%
rate of co-confirmed abstinence during weeks 9 through 12, comparison in words [3, 10]: superior
continuously abstinent from one week after TQD through the end of treatment ([3]; varenicline 1 mg BID, placebo 11%): 29%
co-confirmed abstinence during weeks 9 through 12 ([3]; varenicline 1 mg BID, placebo 18%): 44%
effectiveness as an aid to smoking cessation (in words) [4]: effective as an aid to smoking cessation
rate of co-confirmed abstinence during weeks 9 through 12, comparison in words [5, 10]: superior
continuously abstinent from one week after TQD through the end of treatment ([5]; varenicline 1 mg BID, placebo 12%): 29%
co-confirmed abstinence during weeks 9 through 12 ([5]; varenicline 1 mg BID, placebo 17%): 44%

Structure (SMILES): Cc1ncc2c(c1O)[C@H](N1C[C@H]3C[C@@H](C1)c1cc4nccnc4cc13)OC2 [Compound 1, (R)-6-methyl-1-((6R,10S)-6,7,9,10-tetrahydro-8H-6,10-methanoazepino[4,5-g]quinoxalin-8-yl)-1,3-dihydrofuro[3,4-c]pyridin-7-ol]
hygroscopicity (in words) [6]: non-hygroscopic
moisture uptake [6]: less than 0.2%
nitrosamine formation under nitrosating conditions (in words) ([7]; as compared to varenicline tartrate): does not form nitrosamines
10 min. N—NO Level [7, 11]: Not detected
2 h N—NO Level [7, 12]: Not detected.
42 h N—NO Level [7, 12]: Not detected
weight loss [8]: less than 0.1%
prodrug remaining in the systemic circulation ([9]; analyte prodrug): no prodrug remaining in the systemic circulation
bioequivalence (plasma concentration over time) of the varenicline released from the prodrug ([9]; analyte varenicline, vs varenicline tartrate 0.04 mg eq/kg): comparable to varenicline tartrate

10 min. N—NO Level [7, 11]: Not detected
2 h N—NO Level [7, 12]: Not detected
42 h N—NO Level [7, 12]: Not detected
Structure (SMILES): Cl.c1cnc2cc3c(cc2n1)C1CNCC3C1 [Varenicline Free base, 5,8,14-triazatetracyclo [10.3.1.0^2,11.0^4,9]hexadeca-2(11),3,5,7,9-pentaene]

10 min. N—NO Level (by MS) ([7]; nitrosating conditions: NaNO2 0.1 eq, AcOH 0.1 eq, THF, 10 min, MS detection): Detectable by MS
10 min. N—NO Level [7, 11]: Not detected by UV
2 h N—NO Level [7, 12]: 0.83 A %
42 h N—NO Level [7, 12]: 5.15 A %
Structure (SMILES): O=C(O)C(O)C(O)C(=O)O.c1cnc2cc3c(cc2n1)[C@@H]1CNC[C@H]3C1 [Varenicline tartrate]
